Measured values: patent US20260070891A1, “METHOD FOR PRODUCING QUINOXALINE DERIVATIVE” (Kyowa Kirin Co., Ltd., priority 2022, published 2026)

How the values were obtained:
[1] = Crystal form stability on standing at room temperature, rechecked by powder X-ray diffraction (Test Example 1); type: physicochemical; conditions: allowed to stand for 8 weeks at room temperature
Method: In addition, the measurement of powder X-ray diffraction (reflection method) was performed by pulverizing a sample in an agate mortar, taking an appropriate amount of the sample into a sample plate, and measuring a diffraction peak such that a diffraction angle 20 includes a range of 5° to 40°. The X-ray to be radiated was a copper Ka ray (CuKα ray), and the tube voltage was set to 50 kV, the tube current was set to 1 mA, and the step time was set to 120 seconds. The thermal analysis was performed by taking 2 mg of the sample into an aluminum pan and measuring differential scanning calorimetry (DSC) under a condition of a heating rate of 5° C./min. For the measurement of powder X-ray diffraction (reflection method), D8 DISCOVER manufactured by Bruker AXS was used.
The type II crystal of (R)—N-(3-{2,2,2-trifluoro-1-[6-(2-methyl-2H-1,2,3-triazol-4-yl)pyridin-3-yl]ethoxy}quinoxalin-2-yl) propane-1-sulfonamide obtained in step 3 of Example 1 was allowed to stand for 8 weeks at room temperature.

[2] = Long-term storage stability of crystal at 25° C. and 60% RH (Test Example 1); type: physicochemical; conditions: 25° C. and 60% RH for 5 years

| Compound | crystal form after standing (powder X-ray diffraction) [1] | stability (properties, related substances, optical isomers, content, powder X-ray diffraction pattern) [2] |
| --- | --- | --- |
| CCCS(=O)(=O)Nc1nc2ccccc2nc1O[C@H](c1ccc(-c2cnn(C)n2)nc1)C(F)(F)F [type II crystal, (R)—N-(3-{2,2,2-trifluoro-1-[6-(2-methyl-2H-1,2,3-triazol-4-yl)pyridin-3-yl]ethoxy}quinoxalin-2-yl) propane-1-sulfonamide] | transition to a mixed crystal of the type III crystal and the type II crystal | – |
| CCCS(=O)(=O)Nc1nc2ccccc2nc1O[C@H](c1ccc(-c2cnn(C)n2)nc1)C(F)(F)F [type III crystal, (R)—N-(3-{2,2,2-trifluoro-1-[6-(2-methyl-2H-1,2,3-triazol-4-yl)pyridin-3-yl]ethoxy}quinoxalin-2-yl)propane-1-sulfonamide] | – | no changes in the properties, related substances, optical isomers, content, or powder X-ray diffraction pattern |
